How the values were obtained:
[1] = target: T1, Sodium-dependent noradrenaline transporter (Homo sapiens, UniProt P23975)
Description: Binding affinity to NET (unknown origin)

[2] = target: T2, Sodium-dependent dopamine transporter (Homo sapiens, UniProt Q01959)
Description: Binding affinity to DAT (unknown origin)

[3] = target: T3, Sodium-dependent serotonin transporter (Homo sapiens, UniProt P31645)
Description: Binding affinity to SERT (unknown origin)

[4] = target: Sodium-dependent dopamine transporter (Rattus norvegicus, UniProt P23977); test: Inhibition of rat brain DAT assessed as reduction of [3H]-DA re-uptake preincubated for 30 mins followed by [3H]-DA addition measured after 5 mins by scintillation counting
Sodium-dependent dopamine transporter (Rattus norvegicus, UniProt P23977), sequence (P23977 whole entry): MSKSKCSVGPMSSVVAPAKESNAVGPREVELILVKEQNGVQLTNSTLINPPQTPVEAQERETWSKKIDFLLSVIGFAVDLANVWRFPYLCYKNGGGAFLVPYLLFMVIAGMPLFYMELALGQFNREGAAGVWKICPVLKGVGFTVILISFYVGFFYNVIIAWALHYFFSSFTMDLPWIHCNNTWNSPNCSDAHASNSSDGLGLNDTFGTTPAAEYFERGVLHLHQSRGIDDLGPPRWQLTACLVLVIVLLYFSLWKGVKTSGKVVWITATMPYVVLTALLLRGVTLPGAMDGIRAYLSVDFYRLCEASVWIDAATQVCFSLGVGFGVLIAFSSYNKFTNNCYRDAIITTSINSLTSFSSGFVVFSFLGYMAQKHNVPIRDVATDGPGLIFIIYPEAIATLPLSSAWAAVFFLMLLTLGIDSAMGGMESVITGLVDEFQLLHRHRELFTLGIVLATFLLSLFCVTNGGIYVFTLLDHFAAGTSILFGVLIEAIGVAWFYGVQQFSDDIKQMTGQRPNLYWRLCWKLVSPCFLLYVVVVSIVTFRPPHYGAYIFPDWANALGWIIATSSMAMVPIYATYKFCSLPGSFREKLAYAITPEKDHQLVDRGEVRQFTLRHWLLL

[5] = target: Sodium-dependent serotonin transporter (Rattus norvegicus, UniProt P31652); test: Inhibition of rat brain SERT assessed as reduction of [3H]5-HT re-uptake preincubated for 30 mins followed by [3H]5-HT addition measured after 5 mins by scintillation counting
Sodium-dependent serotonin transporter (Rattus norvegicus, UniProt P31652), sequence (P31652 whole entry): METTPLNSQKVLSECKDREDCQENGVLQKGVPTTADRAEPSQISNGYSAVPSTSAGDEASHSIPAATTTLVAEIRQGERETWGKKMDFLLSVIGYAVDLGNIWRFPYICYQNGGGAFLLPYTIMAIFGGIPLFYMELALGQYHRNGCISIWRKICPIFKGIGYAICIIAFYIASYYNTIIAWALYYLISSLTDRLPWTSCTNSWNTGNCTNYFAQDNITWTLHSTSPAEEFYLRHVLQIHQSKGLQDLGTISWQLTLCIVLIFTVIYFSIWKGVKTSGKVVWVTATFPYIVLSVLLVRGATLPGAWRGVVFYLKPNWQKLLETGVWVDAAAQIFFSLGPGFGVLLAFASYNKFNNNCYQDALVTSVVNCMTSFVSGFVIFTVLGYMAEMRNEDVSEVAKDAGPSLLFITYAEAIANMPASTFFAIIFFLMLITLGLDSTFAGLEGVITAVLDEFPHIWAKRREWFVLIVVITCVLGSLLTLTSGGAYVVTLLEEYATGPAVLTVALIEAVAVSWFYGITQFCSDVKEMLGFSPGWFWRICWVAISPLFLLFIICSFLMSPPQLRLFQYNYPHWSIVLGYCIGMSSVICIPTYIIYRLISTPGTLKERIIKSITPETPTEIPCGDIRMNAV

[6] = target: Norepinephrine transporter (Rattus norvegicus, UniProt Q9WTR4); test: Inhibition of rat brain NET assessed as reduction of [3H]-NE re-uptake preincubated for 30 mins followed by [3H]-NE addition measured after 5 mins by scintillation counting
Norepinephrine transporter, sequence (Q9WTR4 whole entry): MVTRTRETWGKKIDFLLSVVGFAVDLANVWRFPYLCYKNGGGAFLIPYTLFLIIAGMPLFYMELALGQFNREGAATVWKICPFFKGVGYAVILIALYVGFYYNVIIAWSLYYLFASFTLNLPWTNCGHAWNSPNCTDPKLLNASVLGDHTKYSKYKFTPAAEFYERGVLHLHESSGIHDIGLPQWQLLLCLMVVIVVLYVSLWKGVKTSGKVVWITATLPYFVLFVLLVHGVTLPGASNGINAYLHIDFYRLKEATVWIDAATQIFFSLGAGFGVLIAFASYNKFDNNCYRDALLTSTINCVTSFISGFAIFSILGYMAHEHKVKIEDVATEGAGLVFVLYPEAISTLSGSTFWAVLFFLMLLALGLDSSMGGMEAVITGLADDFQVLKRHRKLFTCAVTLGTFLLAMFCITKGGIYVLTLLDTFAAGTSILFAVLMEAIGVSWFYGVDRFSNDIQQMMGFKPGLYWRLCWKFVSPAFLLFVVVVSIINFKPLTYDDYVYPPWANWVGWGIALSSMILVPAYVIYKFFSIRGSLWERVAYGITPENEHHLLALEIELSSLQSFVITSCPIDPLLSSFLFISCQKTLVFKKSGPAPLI

[7] = target: T1, Sodium-dependent noradrenaline transporter; test: Inhibition of human NET expressed in CHO cells assessed as reduction of [3H]-NE re-uptake preincubated for 10 mins followed by [3H]-NE addition measured after 10 mins by liquid scintillation counting; type: cell-based
[8] = target: T3, Sodium-dependent serotonin transporter; test: Inhibition of human SERT expressed in CHO cells assessed as reduction of [3H]-5-HT re-uptake preincubated for 10 mins followed by [3H]-5-HT addition measured after 10 mins by liquid scintillation counting; type: cell-based
[9] = target: T2, Sodium-dependent dopamine transporter; test: Inhibition of human DAT expressed in CHO cells assessed as reduction of [3H]-DA re-uptake preincubated for 10 mins followed by [3H]-DA addition measured after 10 mins by liquid scintillation counting; type: cell-based
Homo sapiens [10] = test: Anti-obesity activity in human assessed as body weight loss at 1 mg/kg, po administered for 6 months relative to control; type: functional
Homo sapiens [11] = test: In vivo receptor occupancy at DAT in human brain at 0.125 to 0.5 mg, iv via bolus dosing measured at 3 hrs post dose by PET analysis; type: functional
[12] = Tmax in human at 9 mg; type: ADME, organism-based; conditions: in vivo
Homo sapiens [13] = test: Anti-obesity activity in human assessed as body weight loss at 0.5 mg/kg, po administered for 6 months relative to control; type: functional
Homo sapiens [14] = test: Anti-obesity activity in human assessed as body weight loss at […], po administered for 6 months relative to control; type: functional
[15] = target: T3, Sodium-dependent serotonin transporter; test: Inhibition of SERT (unknown origin)-mediated uptake
[16] = target: T2, Sodium-dependent dopamine transporter; test: Inhibition of DAT (unknown origin)-mediated uptake
[17] = target: T3, Sodium-dependent serotonin transporter; test: Binding affinity to human SERT
[18] = target: T1, Sodium-dependent noradrenaline transporter; test: Binding affinity to human NET
[19] = target: T2, Sodium-dependent dopamine transporter; test: Binding affinity to human DAT
[20] = Tmax in human plasma at 30 mg administered qd for 3 days followed by 60 mg administration at qd for next 11 days measured on day 14 post last dose by LC-MS/MS analysis; type: ADME, organism-based
[21] = Half life in human cerebrospinal fluid at 30 mg administered qd for 3 days followed by 60 mg administration at qd for next 11 days measured on day 14 post last dose by LC-MS/MS analysis; type: ADME, tissue-based
[22] = Ratio of drug level in human brain to plasma at 30 mg administered qd for 3 days followed by 60 mg administration at qd for next 11 days measured on day 14 post last dose by LC-MS/MS analysis; type: ADME; conditions: read-out: BPR
Homo sapiens [23] = test: In vivo receptor occupancy at SERT in human at 1 mg/day by PET imaging method; type: functional
Homo sapiens [24] = test: In vivo receptor occupancy at SERT in human at 2 mg/day by PET imaging method; type: functional
Homo sapiens [25] = test: In vivo receptor occupancy at DAT in human at 2 mg/day by PET imaging method; type: functional
Homo sapiens [26] = test: In vivo receptor occupancy at DAT in human at 1 mg/day by PET imaging method; type: functional
[27] = target: T3, Sodium-dependent serotonin transporter; test: biochemical; type: cell-based, HEK293
Description: Binding affinity to human SERT expressed in HEK293 cells after 60 mins in presence of [3H]imipramine by liquid scintillation counting

[28] = target: T1, Sodium-dependent noradrenaline transporter; test: Binding affinity to human NET expressed in HEK293 cells after 60 mins in presence of [3H]imipramine by liquid scintillation counting; type: cell-based
[29] = target: T2, Sodium-dependent dopamine transporter; test: Binding affinity to human DAT expressed in HEK293 cells after 60 mins in presence of […] by liquid scintillation counting; type: cell-based
Rattus norvegicus [30] = test: In vivo receptor occupancy at NET in ip dosed rat brain measured 60 mins post dose; type: functional; conditions: 1 h
Rattus norvegicus [31] = test: In vivo receptor occupancy at DAT in ip dosed rat brain measured 60 mins post dose; type: functional; conditions: 1 h
Rattus norvegicus [32] = test: In vivo receptor occupancy at SERT in ip dosed rat brain measured 60 mins post dose; type: functional; conditions: 1 h
[33] = target: T2, Sodium-dependent dopamine transporter; test: Inhibition of human DAT expressed in HEK cells assessed as reduction of [3H]-DA uptake preincubated for 10 mins followed by […] measured after 10 mins by scintillation counting method; type: cell-based
[34] = target: T1, Sodium-dependent noradrenaline transporter; test: Inhibition of human NET expressed in HEK cells assessed as reduction of [3H]-NE uptake preincubated for 10 mins followed by […] measured after 10 mins by scintillation counting method; type: cell-based
[35] = target: T3, Sodium-dependent serotonin transporter; test: Inhibition of human SERT expressed in HEK cells assessed as reduction of [3H]5-HT uptake preincubated for 10 mins followed by [3H]5-HT addition measured after 10 mins by scintillation counting method; type: cell-based

T2 sequence (Q01959 whole entry): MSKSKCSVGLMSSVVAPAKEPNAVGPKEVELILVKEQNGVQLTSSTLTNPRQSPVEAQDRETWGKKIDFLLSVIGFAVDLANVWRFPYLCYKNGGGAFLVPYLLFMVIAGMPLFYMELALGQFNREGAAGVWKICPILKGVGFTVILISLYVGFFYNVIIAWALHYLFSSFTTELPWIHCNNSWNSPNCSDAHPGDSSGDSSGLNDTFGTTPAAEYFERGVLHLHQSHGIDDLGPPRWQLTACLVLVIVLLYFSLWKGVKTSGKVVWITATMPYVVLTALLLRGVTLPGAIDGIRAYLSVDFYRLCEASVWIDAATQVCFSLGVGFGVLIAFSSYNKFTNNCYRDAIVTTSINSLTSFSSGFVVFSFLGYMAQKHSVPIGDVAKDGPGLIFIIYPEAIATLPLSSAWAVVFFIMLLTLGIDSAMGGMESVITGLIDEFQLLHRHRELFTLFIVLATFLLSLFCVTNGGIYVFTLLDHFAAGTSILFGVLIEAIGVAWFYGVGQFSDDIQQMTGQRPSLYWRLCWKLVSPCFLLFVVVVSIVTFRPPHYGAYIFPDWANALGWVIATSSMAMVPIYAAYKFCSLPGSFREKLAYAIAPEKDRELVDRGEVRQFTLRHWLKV
T1 sequence (P23975 whole entry): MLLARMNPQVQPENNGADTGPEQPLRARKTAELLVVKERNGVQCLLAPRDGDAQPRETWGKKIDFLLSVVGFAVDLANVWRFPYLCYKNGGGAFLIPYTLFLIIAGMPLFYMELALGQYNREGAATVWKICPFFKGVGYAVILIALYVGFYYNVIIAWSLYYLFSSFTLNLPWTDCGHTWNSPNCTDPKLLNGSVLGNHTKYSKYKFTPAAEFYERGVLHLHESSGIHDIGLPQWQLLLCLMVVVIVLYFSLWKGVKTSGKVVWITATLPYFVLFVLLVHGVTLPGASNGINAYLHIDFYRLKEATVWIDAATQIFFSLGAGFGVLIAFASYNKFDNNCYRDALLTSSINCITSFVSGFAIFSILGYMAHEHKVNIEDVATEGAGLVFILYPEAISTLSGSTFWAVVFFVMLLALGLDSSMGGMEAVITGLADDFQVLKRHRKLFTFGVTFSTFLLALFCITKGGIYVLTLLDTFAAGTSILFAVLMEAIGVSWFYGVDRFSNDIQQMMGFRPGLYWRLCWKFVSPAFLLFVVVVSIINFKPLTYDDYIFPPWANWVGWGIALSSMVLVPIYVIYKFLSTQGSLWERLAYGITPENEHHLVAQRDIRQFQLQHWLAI
T3 sequence (P31645 whole entry): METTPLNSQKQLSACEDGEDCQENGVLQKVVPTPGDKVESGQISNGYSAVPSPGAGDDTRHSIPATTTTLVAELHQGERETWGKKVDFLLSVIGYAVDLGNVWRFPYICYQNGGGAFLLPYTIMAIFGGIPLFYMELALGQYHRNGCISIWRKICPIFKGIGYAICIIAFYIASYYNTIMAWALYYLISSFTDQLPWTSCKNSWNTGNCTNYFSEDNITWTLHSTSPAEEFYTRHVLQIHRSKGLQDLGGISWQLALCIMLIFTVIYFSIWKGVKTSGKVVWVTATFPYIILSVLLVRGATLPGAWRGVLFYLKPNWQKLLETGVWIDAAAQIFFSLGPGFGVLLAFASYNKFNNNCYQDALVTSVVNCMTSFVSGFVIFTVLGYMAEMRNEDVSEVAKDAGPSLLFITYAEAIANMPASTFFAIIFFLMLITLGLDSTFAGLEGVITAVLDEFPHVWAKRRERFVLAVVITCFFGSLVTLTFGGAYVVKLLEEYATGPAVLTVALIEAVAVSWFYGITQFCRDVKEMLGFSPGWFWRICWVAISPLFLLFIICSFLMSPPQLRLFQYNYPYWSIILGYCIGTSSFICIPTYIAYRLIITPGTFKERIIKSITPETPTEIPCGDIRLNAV

## C#Cc1ccc([C@@H]2CN3CCC[C@@H]3c3ccccc32)cc1
[1]
  Ki: 0.0041 µM
[2]
  Ki: 0.0016 µM
[3]
  Ki: 0.00027 µM

## COC(=O)[C@H]1CN(C)CC[C@@H]1c1ccc(Cl)cc1
[4]
  IC50: 0.233 µM
[5]
  IC50: 8.49 µM
[6]
  IC50: 0.252 µM

## CN(C)CC(c1ccc(OC(=O)c2ccccc2)cc1)C1(O)CCCCC1 (stereo not drawn)
[7]
  IC50: 0.644 µM
[8]
  IC50: 0.105 µM
[9]
  IC50: 0.813 µM

## CCOC[C@H]1[C@@H](c2ccc(Cl)c(Cl)c2)C[C@@H]2CC[C@H]1N2C
[1]
  IC50: 0.0032 µM
Homo sapiens [10]
  Activity: 10.6%
[2]
  IC50: 0.008 µM
Homo sapiens [11]
  Occ: 18 - 77%
[12]
  Tmax: 6 h
Homo sapiens [13]
  Activity: 9.2%
[3]
  IC50: 0.011 µM
Homo sapiens [14]
  Activity: 4.5%

## C[C@]1(O)CC[C@](CN)(c2ccc(Cl)c(Cl)c2)CC1
[15]
  IC50: 1.19 µM
[16]
  IC50: 0.518 µM

## Clc1ccc(C2CCNCC23COC3)cc1Cl (stereo not drawn)
[17]
  Ki: 0.0631 µM
[18]
  Ki: 0.158 µM
[19]
  Ki: 0.158 µM

## CN1Cc2c(N)cccc2C(c2ccc(Cl)c(Cl)c2)C1 (stereo not drawn)
[1]
  Ki: 0.0088 µM
[2]
  Ki: 0.0109 µM
[3]
  Ki: 0.0103 µM

## CN(C)C[C@]1(c2ccc(Cl)c(Cl)c2)CC[C@@](C)(O)CC1
[20]
  Tmax: 4 h
[15]
  IC50: 0.034 µM
[2]
  IC50: 0.041 µM
[21]
  half-life: 18 h
[16]
  IC50: 0.041 µM
[22]
  Kp at 14 day: 0.22
[3]
  IC50: 0.034 µM

## CNC[C@]1(c2ccc(Cl)c(Cl)c2)CC[C@](C)(O)CC1
[20]
  Tmax: 6 h
[15]
  IC50: 0.21 µM
[21]
  half-life: 32 h
[16]
  IC50: 0.071 µM
[22]
  Kp at 14 day: 0.46

## COC[C@H]1[C@@H](c2ccc(Cl)c(Cl)c2)C[C@@H]2CC[C@H]1N2C
[1]
  IC50: 0.002 µM
Homo sapiens [23]
  Occ: 55%
Homo sapiens [24]
  Occ: 75%
[2]
  IC50: 0.01 µM
Homo sapiens [25]
  Occ: 80%
Homo sapiens [26]
  Occ: 60%
[3]
  IC50: 0.01 µM

## COC[C@@H]1CN[C@@H]2CC[C@@]1(c1ccc(Cl)c(Cl)c1)C2
[17]
  Ki: 0.0316 µM
[18]
  Ki: 0.00631 µM
[19]
  Ki: 0.0794 µM

## Clc1ccc([C@@H]2CCN[C@@H]3CCOC[C@@H]32)cc1Cl
[17]
  Ki: 0.0316 µM
[18]
  Ki: 0.0501 µM
[19]
  Ki: 0.0398 µM

## COC[C@H]1CN[C@@H]2CC[C@@]1(c1ccc(Cl)c(Cl)c1)C2
[17]
  Ki: 0.01 µM
[18]
  Ki: 0.00316 µM
[19]
  Ki: 0.00501 µM

## CNC[C@H](c1ccc2ccccc2c1)[C@H](O)c1ccccc1
[27]
  Ki: 0.0021 µM
[28]
  Ki: 0.0015 µM
[29]
  Ki: 0.061 µM

## Clc1ccc([C@]23CNCC2C3)cc1Cl (stereo partly drawn)
Rattus norvegicus [30]
  ED50: 2 mg/kg
Rattus norvegicus [31]
  ED50: 49 mg/kg
Rattus norvegicus [32]
  ED50: 0.5 mg/kg

## c1ccc2cc([C@]34CNCC3C4)ccc2c1 (stereo partly drawn)
[33]
  IC50: 0.038 µM
[34]
  IC50: 0.006 µM
[35]
  IC50: 0.084 µM

## COC[C@@H]1CN[C@H]2CC[C@]1(c1ccc(Cl)c(Cl)c1)C2
[17]
  Ki: 0.00209 µM
[18]
  Ki: 0.00141 µM
[19]
  Ki: 0.00575 µM

## C#Cc1ccc([C@H]2CN3CCC[C@H]3c3ccccc32)cc1
[1]
  Ki: 0.227 µM
[2]
  Ki: 0.0743 µM
[3]
  Ki: 0.0158 µM

Reference: ChEMBL document CHEMBL4219032, “Triple Reuptake Inhibitors as Potential Therapeutics for Depression and Other Disorders: Design Paradigm and Developmental Challenges” (J Med Chem, 2018)
